Where only a bound is given, the exact number is not on record here.

Chain of EZH2 (Q15910 whole entry): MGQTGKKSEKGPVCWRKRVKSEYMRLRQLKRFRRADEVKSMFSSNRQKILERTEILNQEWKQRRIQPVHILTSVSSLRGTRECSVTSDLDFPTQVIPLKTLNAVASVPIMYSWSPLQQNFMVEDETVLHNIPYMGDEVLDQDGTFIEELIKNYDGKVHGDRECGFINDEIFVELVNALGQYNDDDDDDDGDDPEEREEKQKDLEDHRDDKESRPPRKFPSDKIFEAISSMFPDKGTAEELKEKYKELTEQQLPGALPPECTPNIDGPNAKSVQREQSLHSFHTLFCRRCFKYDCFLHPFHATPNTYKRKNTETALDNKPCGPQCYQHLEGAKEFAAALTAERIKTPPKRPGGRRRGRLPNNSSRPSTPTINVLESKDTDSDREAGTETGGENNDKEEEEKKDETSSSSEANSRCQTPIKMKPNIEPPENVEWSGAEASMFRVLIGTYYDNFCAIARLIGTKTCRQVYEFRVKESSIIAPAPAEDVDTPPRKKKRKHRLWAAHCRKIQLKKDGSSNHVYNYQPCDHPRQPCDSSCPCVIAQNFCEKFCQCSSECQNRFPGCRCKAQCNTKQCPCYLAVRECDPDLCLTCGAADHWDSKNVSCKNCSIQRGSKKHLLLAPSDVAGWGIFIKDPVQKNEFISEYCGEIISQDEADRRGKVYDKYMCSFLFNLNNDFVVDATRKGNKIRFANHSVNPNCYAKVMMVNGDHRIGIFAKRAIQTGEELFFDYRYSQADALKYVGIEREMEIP
Chain of EZH2 (O75530 whole entry partner): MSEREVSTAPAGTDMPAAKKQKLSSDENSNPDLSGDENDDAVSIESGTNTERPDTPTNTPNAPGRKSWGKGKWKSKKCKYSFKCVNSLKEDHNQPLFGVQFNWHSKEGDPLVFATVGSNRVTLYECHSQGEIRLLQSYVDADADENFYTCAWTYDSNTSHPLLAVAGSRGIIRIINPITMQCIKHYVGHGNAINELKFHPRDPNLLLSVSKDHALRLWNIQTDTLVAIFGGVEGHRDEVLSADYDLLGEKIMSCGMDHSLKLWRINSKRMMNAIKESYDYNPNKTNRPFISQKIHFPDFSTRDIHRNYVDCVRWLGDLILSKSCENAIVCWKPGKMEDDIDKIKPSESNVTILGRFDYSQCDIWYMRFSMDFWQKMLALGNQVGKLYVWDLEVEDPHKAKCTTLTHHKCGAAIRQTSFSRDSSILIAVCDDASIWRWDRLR
Chain of EZH2 (Q15022 whole entry partner): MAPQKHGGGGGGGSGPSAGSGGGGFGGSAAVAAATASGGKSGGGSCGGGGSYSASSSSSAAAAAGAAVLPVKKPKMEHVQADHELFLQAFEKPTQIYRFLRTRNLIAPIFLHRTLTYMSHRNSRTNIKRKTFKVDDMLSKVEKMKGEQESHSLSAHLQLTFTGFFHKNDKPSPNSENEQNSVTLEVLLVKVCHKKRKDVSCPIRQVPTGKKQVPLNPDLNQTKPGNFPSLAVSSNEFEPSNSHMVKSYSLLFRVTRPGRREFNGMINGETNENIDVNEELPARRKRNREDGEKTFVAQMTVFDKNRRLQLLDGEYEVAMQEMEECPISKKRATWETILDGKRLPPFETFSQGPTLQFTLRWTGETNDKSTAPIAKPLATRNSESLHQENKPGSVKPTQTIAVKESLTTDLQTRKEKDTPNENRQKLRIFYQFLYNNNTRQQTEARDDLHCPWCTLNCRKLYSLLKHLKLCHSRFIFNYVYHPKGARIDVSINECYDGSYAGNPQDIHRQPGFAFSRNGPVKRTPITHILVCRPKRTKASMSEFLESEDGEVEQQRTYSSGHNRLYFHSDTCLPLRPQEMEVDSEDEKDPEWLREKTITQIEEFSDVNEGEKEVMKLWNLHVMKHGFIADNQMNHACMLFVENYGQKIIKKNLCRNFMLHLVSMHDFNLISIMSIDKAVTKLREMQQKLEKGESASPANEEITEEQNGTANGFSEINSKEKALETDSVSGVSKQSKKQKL

The first test addresses EZH2 (Homo sapiens, UniProt Q15910). In words: EZH2 assay: rPRC2 with biotinylated oligonucleosome substrates and 3H SAM, FlashPlate scintillation counting, IC50. Type of test: biochemical.
Settings: not given
The procedure, abridged: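 IC50 from 4-parameter fit, baselines fixed at 0 and 100%. Compounds (top 80 uM, 2-fold series to 0.16 uM) pre-incubated 20 min with 2 nM EZH2-PRC2; 60-min methylation in pH 8.5 Tris with 0.2 uM 3H SAM, 0.2 uM oligonucleosomes, 3.6 uM H3K27me3 peptide.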
The compound `CC1(C)CC(NC(=O)c2ccc(Oc3ccccc3C#N)c(Cl)c2)CC(C)(C)N1[O]` [Compound I-402] had an IC50 above 80 µM.

Staying with this test, now noted: rPRC2, biotinylated oligonucleosome substrates, 3H SAM; read-out: EZH2 IC50.
On to `CC1(C)CC(NC(=O)c2ccc(Oc3cccc(-c4ncccn4)c3C#N)c(Cl)c2)CC(C)(C)N1` [Compound I-445], for which the IC50 was below 5 µM. Regarding `Cc1cc(C(=O)NC2CC(C)(C)NC(C)(C)C2)ccc1Oc1cccc(C(C)C)c1C#N` [Compound I-267], the IC50 is below 5 µM. Still for that read-out and setting: the result for `CC1(C)CC(NC(=O)c2ccc(COc3cccc(N4CCOCC4)c3)cc2)CC(C)(C)N1` [Compound I-164] reads above 80 µM; that for `CC1(C)CC(NC(=O)c2ccc(Oc3cccc(CN4CCCC4=O)c3)c(Cl)c2)CC(C)(C)N1` [Compound I-447], 5 to 20 µM. Still for that read-out and setting: the result for `CC(O)c1cccc(Oc2ccc(C(=O)NC3CC(C)(C)NC(C)(C)C3)cc2Cl)c1Br` (centres unmarked) [Compound I-399] reads below 5 µM; that for `CC1CC(NC(=O)c2ccc(Oc3ccccc3C#N)c(Cl)c2)CC(C)(C)N1` (centres unmarked) [Compound I-461], 5 to 20 µM; that for `CC(C)c1ccc(C(=O)NC2CC(C)(C)NC(C)(C)C2)cc1` [Compound I-135], above 80 µM.

Regarding `CC1(C)CC(NC(=O)c2ccc(N3CCc4cccc(O)c4C3=O)c(Cl)c2)CC(C)(C)N1` [Compound I-498], the IC50 was in the range of 5 to 20 µM.

For `CC1(C)CC(NC(=O)c2ccc(Oc3cccc4nccn34)c(Cl)c2)CC(C)(C)N1` [Compound I-372], the IC50 lay in the range of 5 to 20 µM. Still for that read-out and setting: as for `CC1(C)CC(NC(=O)c2ccc(Oc3ccccc3C#N)c(C3CC3)c2)CC(C)(C)N1` [Compound I-221], the figure is below 5 µM; as for `CC1(C)CC(NC(=O)c2ccc(OC3CCCCC3)cc2)CC(C)(C)N1` [Compound I-147], 20 to 80 µM. Still for that read-out and setting: as for `CC1(C)CC(NC(=O)Nc2ccc(C(C)(C)C)cc2Br)CC(C)(C)N1` [Compound I-143], the figure is above 80 µM; as for `CC1(C)CC(NC(=O)c2ccc3oc4c(C#N)cccc4c3c2)CC(C)(C)N1` [Compound I-187], 20 to 80 µM.

Take `CC1(C)CC(NC(=O)c2ccc(Oc3ccccc3Br)cc2)CC(C)(C)N1` [Compound I-16]: the IC50 lay within 5 to 20 µM. For `CC1(C)CC(NC(=O)c2ccc(Oc3cccc(CC(N)=O)c3C#N)c(Cl)c2)CC(C)(C)N1` [Compound I-469], the IC50 is below 5 µM.

In the case of `CC(=O)NCc1cccc(Oc2ccc(C(=O)NC3CC(C)(C)NC(C)(C)C3)cc2Cl)c1` [Compound I-430], the IC50 was below 5 µM. Consider `CC1(C)CC(NC(=O)c2ccc(Oc3ccccc3-c3ccncc3)c(Cl)c2)CC(C)(C)N1` [Compound I-226], for which the IC50 was below 5 µM. The same measure, in the same setting: the result for `CC1(C)CC(NC(=O)c2ccc(COc3cccc(-c4cccc(O)c4)c3)cc2)CC(C)(C)N1` [Compound I-30] reads 20 to 80 µM; that for `CC1(C)CC(NC(=O)c2ccc(SC3CCCCC3)cc2)CC(C)(C)N1` [Compound I-145], 20 to 80 µM.

For `CC1(C)CC(NC(=O)c2ccc(Oc3ncccn3)cc2)CC(C)(C)N1` [Compound I-79], the 50% inhibitory concentration (IC50) was above 80 µM. With `CC1(C)CC(NC(=O)c2ccc(Oc3cccc(C4CCOC4)c3C#N)c(Cl)c2)CC(C)(C)N1` (centres unmarked) [Compound I-530], the IC50 is below 5 µM. Still for that read-out and setting: as for `CC1(C)CC(NC(C(=O)O)c2ccc(Oc3ccccc3C#N)c(Cl)c2)CC(C)(C)N1` (centres unmarked) [Compound I-483], the figure is above 80 µM; as for `CC1(C)CC(NC(=O)c2ccc(Nc3ccccc3)cc2)CC(C)(C)N1` [Compound I-107], above 80 µM.

Regarding `CC1(C)CC(NC(=O)c2ccc(COc3cccc(-c4ccc(N)cc4)c3)cc2)CC(C)(C)N1` [Compound I-155], the IC50 fell in the range of 20 to 80 µM.

For the compound `CC1(C)CC(NC(=O)c2ccc(COc3cccc(C#N)c3)cc2)CC(C)(C)N1` [Compound I-76], the IC50 is above 80 µM.

`CC1(C)CC(NC(=O)c2ccc(COc3cccc(-c4cccc(C#N)c4)c3)cc2)CC(C)(C)N1` [Compound I-51]: the IC50 was 20 to 80 µM. On the same count and under the same terms, the result for `CC1(C)CC(NC(=O)c2ccc(N3CCOc4ccccc43)cc2)CC(C)(C)N1` [Compound I-440] reads above 80 µM; that for `N#Cc1c(Oc2ccc(C(=O)NC3CCNCC3C#N)cc2Cl)cccc1-c1ccnnc1` (centres unmarked) [Compound I-329], above 80 µM; that for `CC1(C)CC(NC(=O)c2ccc(Oc3cccc(-c4cn[nH]c4)c3C#N)c(C3CC3)c2)CC(C)(C)N1` [Compound I-439], below 5 µM.

Consider `CC1(C)CC(NC(=O)c2ccc(Oc3ccccc3)cc2F)CC(C)(C)N1` [Compound I-203], for which the IC50 is above 80 µM. Still for that read-out and setting: the result for `Cc1cccc(C)c1OCc1ccc(C(=O)NC2CC(C)(C)NC(C)(C)C2)cc1` [Compound I-23] reads 20 to 80 µM; that for `N#Cc1c(Oc2ccc(C(=O)NC3CCN(CCN)CC3)cc2Cl)cccc1-c1ccnnc1` [Compound I-486], 5 to 20 µM. Same read-out and setting: as for `CC1(C)CC(NC(=O)c2ccc(Oc3ccccc3CO)cc2)CC(C)(C)N1` [Compound I-179], the figure is 20 to 80 µM; as for `Cc1cc(C(=O)NC2CC(C)(C)NC(C)(C)C2)ccc1Oc1ccccc1C(C)C` [Compound I-332], 5 to 20 µM.

On to `COc1ccc(Oc2ccc(C(=O)NC3CC(C)(C)NC(C)(C)C3)cc2)c(C#N)c1` [Compound I-177], for which the IC50 was above 80 µM. Consider `CC1(C)CC(NC(=O)c2ccc(Oc3ccccc3-c3cccs3)c(Cl)c2)CC(C)(C)N1` [Compound I-277], for which the IC50 is below 5 µM. The same measure, in the same setting: as for `CC1(C)CC(NC(=O)c2ccc(Oc3ccccc3C#N)c(Cl)c2)CC(C)(C)N1CCCO` [Compound I-489, 3-chloro-4-(2-cyanophenoxy)-N-(1-(3-hydroxypropyl)-2,2,6,6-tetramethylpiperidin-4-yl)benzamide], the figure is below 5 µM. On the same count and under the same terms, as for `CC1(C)CC(NC(=O)c2ccc(C(C)(C)C)cc2)CC(C)(C)N1` [Compound I-138], the figure is above 80 µM; as for `CC1(C)CC(NC(=O)c2ccc(Oc3cccc(C(C)(C)C#N)c3)c(Cl)c2)CC(C)(C)N1` [Compound I-462], 20 to 80 µM; as for `Cc1ccc(OCc2ccc(C(=O)NC3CC(C)(C)NC(C)(C)C3)cc2)nc1` [Compound I-70], above 80 µM. On the same count and under the same terms, the result for `CC1(C)CC(NC(=O)c2ccc(Oc3ccccc3C#N)cc2F)CC(C)(C)N1` [Compound I-245] reads 5 to 20 µM; that for `O=C(NC1CCN(C(=O)c2ccccc2)CC1)c1ccc(Oc2ccccc2)cc1` [Compound I-116], above 80 µM; that for `CC1(C)CC(NC(=O)c2cnc(Oc3cccc(-c4cn[nH]c4)c3C#N)c(Cl)c2)CC(C)(C)N1` [Compound I-435], below 5 µM. With `CC1(C)CC(NC(=O)c2ccc(Oc3nccc4ccccc34)c(Cl)c2)CC(C)(C)N1` [Compound I-242], the IC50 is 20 to 80 µM.

Turning to `CC1(C)CC(NC(=O)c2ccc(Oc3ccccc3)c(Br)c2)CC(C)(C)N1` [Compound I-144], the IC50 was in the range of 5 to 20 µM. Same read-out and setting: the result for `CC1(C)CC(NC(=O)c2ccc(Oc3ccccc3Cc3ccccc3)cc2)CC(C)(C)N1` [Compound I-149] reads 5 to 20 µM; that for `N#Cc1c(Oc2ccc(C(=O)NC3CCN(CCO)CC3)cc2Cl)cccc1-c1ccnnc1` [Compound I-474], 20 to 80 µM; that for `CC1(C)CC(NC(=O)c2ccc(Oc3ccc(I)cn3)cc2)CC(C)(C)N1` [Compound I-68, 4-(5-Iodopyridin-2-yloxy)-N-(2,2,6,6-tetramethylpiperidin-4-yl)benzamide], above 80 µM.

Consider `CC1(C)CC(NC(=O)c2ccc(Oc3ccccc3C#N)c(COc3ccccc3)c2)CC(C)(C)N1` [Compound I-239], for which the 50% inhibitory concentration (IC50) was below 5 µM. For `Cc1ccccc1OCc1ccc(C(=O)NC2CC(C)(C)NC(C)(C)C2)cc1` [Compound I-74], the IC50 was above 80 µM.

`CC1(C)CC(NC(=O)c2ccc(Oc3ccccc3C#N)c(C#N)c2)CC(C)(C)N1` [Compound I-264]: the IC50 is below 5 µM. Same read-out and setting: as for `Cc1ncccc1-c1ccccc1Oc1ccc(C(=O)NC2CC(C)(C)NC(C)(C)C2)cc1Cl` [Compound I-293], the figure is 5 to 20 µM.

With `CC1(C)CC(NC(=O)c2ccc(Oc3cccc4cccnc34)c(Cl)c2)CC(C)(C)N1` [Compound I-346], the IC50 lay in the range of 5 to 20 µM. Turning to `N#Cc1c(Br)cccc1Oc1ccc(C(=O)NC2CCNCC2)cc1Cl` [Compound I-407], the IC50 was above 80 µM.

Turning to `CC1(C)CC(NC(=O)c2ccc(COc3ccccc3)c(Br)c2)CC(C)(C)N1` [Compound I-215], the IC50 lay in the range of 20 to 80 µM. Consider `CC1CCCCC1Oc1ccc(C(=O)NC2CC(C)(C)NC(C)(C)C2)cc1` (centres unmarked) [Compound I-298], for which the IC50 was above 80 µM. For the compound `CN(C)C(=O)CCc1cccc(Oc2ccc(C(=O)NC3CC(C)(C)NC(C)(C)C3)cc2Cl)c1C#N` [Compound I-552], the IC50 is below 5 µM. For the compound `CC1(C)CC(NC(=O)c2ccc(COc3ccnc4ccccc34)cc2)CC(C)(C)N1` [Compound I-128], the IC50 was above 80 µM.

For the compound `CC1(C)CC(NC(=O)c2ccc(Oc3cccc(-c4ccnnc4)c3C#N)c(Cl)c2)CC(C)(C)[S+]1[O-]` (centres unmarked) [Compound I-518], the IC50 was 20 to 80 µM. Take `CC1(C)CC(NC(=O)c2ccc(Oc3cccc(CN4CCCC4)c3)cc2)CC(C)(C)N1` [Compound I-235]: the IC50 lay in the range of 5 to 20 µM.

As to `Cc1cc(C)cc(Oc2ccc(C(=O)NC3CC(C)(C)NC(C)(C)C3)cc2)c1` [Compound I-119], the IC50 was above 80 µM. Same read-out and setting: the result for `CC1(C)CC(NC(=O)c2ccc(Oc3cccc(CCC(N)=O)c3C#N)c(Cl)c2)CC(C)(C)N1` [Compound I-501] reads below 5 µM; that for `CC1(C)CC(NC(=O)c2ccc(Oc3cccc4c3C(=O)NCC4)c(Cl)c2)CC(C)(C)N1` [Compound I-525], 5 to 20 µM; that for `CC1(C)CC(NC(=O)c2ccc(Oc3ccccc3O)cc2)CC(C)(C)N1` [Compound I-123], above 80 µM. For the compound `Cc1cccc(Oc2ccc(C(=O)NC3CC(C)(C)NC(C)(C)C3)cc2Cl)c1-c1ccncc1` [Compound I-383], the IC50 was in the range of 20 to 80 µM.

Take `O=C(c1ccc(Oc2ccccc2)cc1)N1CCN(c2ccccc2)CC1` [Compound I-99]: the IC50 is above 80 µM. With `COC(=O)C1CC(NC(=O)c2ccc(Oc3ccccc3C#N)c(Cl)c2)CCN1` (centres unmarked) [Compound I-389], the IC50 is above 80 µM.

These data come from US20130310379A1, “MODULATORS OF METHYL MODIFYING ENZYMES, COMPOSITIONS AND USES THEREOF” (CONSTELLATION PHARMACEUTICALS, priority 2010, published 2013).
